Results published in patent publication US20160262390A1, “FIELD APPLICATION OF SUGARS TO INCREASE CROP YIELD” (Minn-Dak Farmers Cooperative, priority 2015, published 2016).

Key:
[1] = tested on: sugarbeets; test: In-furrow sugar and/or fertilizer application on sugarbeets, Foxhome; type: in vivo, sugarbeet; details: for Recoverable Sugar / Sugarbeets / Yield Increase Compared to Check: in-furrow
Method: In addition to testing pre-planting application of sugar, additional in-furrow application of sugar during sugarbeet planting was conducted. This testing was conducted at the Foxhome location and included ten (10) separate treatments. These treatments included one (1) untreated check treatment in which no sugar was applied and constitutes the control element. The treatments included one (1) treatment in which only a conventional fertilizer (liquid ammonium phosphate commonly and hereafter referred to as “10-34-0”) was applied in-furrow. […] Four (4) treatments included the in-furrow application of concentrated raw sugar juice (hereafter “CONCRJ”) at varying rates and/or 10-34-0. Liquid sugar is essentially comprised of sucrose. […] Liquid sugar, concentrated raw juice and 10-34-0 were all mixed and diluted with water in a tank and a conventional sprayer was configured such that the liquid was sprayed so as to have the desired sugar and fertilizer equivalent. For the sugar applied at rates of three gallons per acre, the sugar mixture was equivalent to 25 pounds per acre of sugar. […] In each replication, the liquid was applied into the furrow during planting of the sugarbeet seeds. A summary of the in-furrow sugar beet testing is contained in Table 16 below: […]

[2] = tested on: sugarbeets; test: Sugarbeet field trial, Wilkin County, Minnesota (ACH 228 seed); type: in vivo
Method: To test the efficacy of using a sugar based fertilizer composition with sugarbeets, a field trial using Crystal® brand ACH 228 sugarbeet seed was conducted in Wilkin County, Minnesota. A total of eleven (11) treatments were conducted. Each treatment was replicated four times arranged in a Randomized Complete Block (RCB) Design in the same field. Each replication consisted of a plot having a width of six (6) rows with twenty two (22) inch row spacing having a row length of twenty five (25) feet. To reduce/eliminate any treatment impacts between adjacent plots, only the four (4) interior rows of each plot were treated and evaluated. With the exception of the treatment program applied to the individual plots, which will be discussed below, conventional commercial growing practices were otherwise followed during the field trials. The individual plots experienced the same growing conditions throughout the season.
The treatment regimen for the sugarbeets included one (1) untreated treatment in which no sugar was applied was used as the control element. One (1) treatment included Sun Energy Foliar Fertilizer (SE) available from Micro Nutrients Online. […] treatments were conducted using GS. SE is available in liquid form and was applied by spraying while GS was supplied in a conventional solid form and applied via broadcast spreading. SE is for foliar application and was applied according to the labeling instructions on post-emergent (Post) sugarbeet plants at the both the 4-Leaf and 8-Leaf stages. GS was applied at a variety of times, both pre-planting (Pre) and on post-emergent sugarbeet plants (Post) at either or both of the 4-Leaf and 8-Leaf stages. When applied during pre-planting (Pre), the GS was spread directly on the soil before spring tillage, lightly worked into the ground and followed by planting of the sugarbeet seed into the treated ground. A summary of the plot treatments are contained in Table 1 below:
Following a conventional growing season, the middle four rows of each plot were harvested and data collected for overall yield (tons of sugarbeets/Acre), sugar per ton (pounds of recoverable sugar/ton of sugarbeets) and sugar per Acre (pounds of recoverable sugar/Acre). Fisher's Exact LSD was the statistical test of choice for mean separation for the individual plots of each treatment. A summary of the sugarbeet harvest data is contained in Table 2 below: […]

[3] = sugar 3 gal/acre + 10-34-0 3 gal/acre
[4] = sugar 3 gal/acre, 10-34-0 0 gal/acre
[5] = sugar 5 gal/acre + 10-34-0 3 gal/acre
[6] = sugar 5 gal/acre, 10-34-0 0 gal/acre
[7] = Replication 3: 50 pounds/Acre Pre
[8] = Replication 4: 100 pounds/Acre Pre
[9] = Replication 5: 3 pounds/Acre 4-Leaf Post
[10] = Replication 6: 3 pounds/Acre 8-Leaf Post
[11] = Replication 7: 5 pounds/Acre 4-Leaf Post
[12] = Replication 8: 3 pounds/Acre 4-Leaf + 3 pounds/Acre 8-Leaf Post
[13] = Replication 9: 5 pounds/Acre 4-Leaf + 5 pounds/Acre 8-Leaf Post
[14] = Replication 10: 50 pounds/Acre Pre + 3 pounds/Acre 8-Leaf
[15] = Replication 11: 100 pounds/Acre Pre + 5 pounds/Acre 8-Leaf

## OC[C@H]1O[C@@](CO)(O[C@H]2O[C@H](CO)[C@@H](O)[C@H](O)[C@H]2O)[C@@H](O)[C@@H]1O [LIQSUC, sucrose]
[1]; every in-furrow application of liquid sucrose
  recoverable sugar compared to the check treatment and to 10-34-0 only: increase in recoverable sugar
[1]; in-furrow liquid sucrose plus 10-34-0
  recoverable sugar compared to the same amount of liquid sugar with no 10-34-0: increase in recoverable sugar
[1]; [3]
  Recoverable Sugar: 6437.113 Pounds/Acred
  Sugarbeets: 26.3981 Tons/Acre
  Yield Increase Compared to Check: 12.79%
[1]; [4]
  Recoverable Sugar: 5777.0474 Pounds/Acred
  Sugarbeets: 23.42 Tons/Acre
  Yield Increase Compared to Check: 1.23%
[1]; [5]
  Recoverable Sugar: 6262.2908 Pounds/Acred
  Sugarbeets: 25.66 Tons/Acre
  Yield Increase Compared to Check: 9.73%
[1]; [6]
  Recoverable Sugar: 5881.91 Pounds/Acred
  Sugarbeets: 24.38 Tons/Acre
  Yield Increase Compared to Check: 3.06%

## OC[C@H]1O[C@@](CO)(O[C@H]2O[C@H](CO)[C@@H](O)[C@H](O)[C@H]2O)[C@@H](O)[C@@H]1O [GS, sucrose]
[2]; [7]
  Pounds of Recoverable Sugar/Acre: 7598.95 pounds/Acre
  Pounds of Recoverable Sugar/Ton of Sugarbeets: 282.03 pounds/ton
  Tons of Sugarbeets/Acre: 26.94 tons/Acre
  Yield Increase (recoverable sugar/Acre vs check): 9.32%
[2]; [8]
  Pounds of Recoverable Sugar/Acre: 8051.44 pounds/Acre
  Pounds of Recoverable Sugar/Ton of Sugarbeets: 278.54 pounds/ton
  Tons of Sugarbeets/Acre: 28.91 tons/Acre
  Yield Increase (recoverable sugar/Acre vs check): 15.83%
[2]; [9]
  Pounds of Recoverable Sugar/Acre: 7021.89 pounds/Acre
  Pounds of Recoverable Sugar/Ton of Sugarbeets: 276.83 pounds/ton
  Tons of Sugarbeets/Acre: 25.41 tons/Acre
  Yield Increase (recoverable sugar/Acre vs check): 1.02%
[2]; [10]
  Pounds of Recoverable Sugar/Acre: 7279.72 pounds/Acre
  Pounds of Recoverable Sugar/Ton of Sugarbeets: 284.34 pounds/ton
  Tons of Sugarbeets/Acre: 25.64 tons/Acre
  Yield Increase (recoverable sugar/Acre vs check): 4.73%
[2]; [11]
  Pounds of Recoverable Sugar/Acre: 6712.87 pounds/Acre
  Pounds of Recoverable Sugar/Ton of Sugarbeets: 274.69 pounds/ton
  Tons of Sugarbeets/Acre: 24.43 tons/Acre
  Yield Increase (recoverable sugar/Acre vs check): −3.43%
[2]; [12]
  Pounds of Recoverable Sugar/Acre: 6125.93 pounds/Acre
  Pounds of Recoverable Sugar/Ton of Sugarbeets: 270.05 pounds/ton
  Tons of Sugarbeets/Acre: 22.81 tons/Acre
  Yield Increase (recoverable sugar/Acre vs check): −11.87%
[2]; [13]
  Pounds of Recoverable Sugar/Acre: 6957.73 pounds/Acre
  Pounds of Recoverable Sugar/Ton of Sugarbeets: 289.83 pounds/ton
  Tons of Sugarbeets/Acre: 24.00 tons/Acre
  Yield Increase (recoverable sugar/Acre vs check): 0.10%
[2]; [14]
  Pounds of Recoverable Sugar/Acre: 7250.53 pounds/Acre
  Pounds of Recoverable Sugar/Ton of Sugarbeets: 276.34 pounds/ton
  Tons of Sugarbeets/Acre: 26.24 tons/Acre
  Yield Increase (recoverable sugar/Acre vs check): 4.31%
[2]; [15]
  Pounds of Recoverable Sugar/Acre: 7963.70 pounds/Acre
  Pounds of Recoverable Sugar/Ton of Sugarbeets: 274.29 pounds/ton
  Tons of Sugarbeets/Acre: 29.03 tons/Acre
  Yield Increase (recoverable sugar/Acre vs check): 14.57%
[2]; every pre-planting application of GS
  yield increase in comparison to the untreated check: ≥ 4%
[2]; largest pre-planting applications of GS
  yield increase as compared to the untreated check: ≥ 14%
[2]; only post-emergent application of GS at 4-Leaf or 8-Leaf stage
  yield data: inconclusive
